# Experimental data as given in US6835386B2, “Collar containing a novel gel formulation to control arthropod infestation of animals” (Pfizer Inc., priority 1998, dated 2004).
# Test: Miscibility of insecticide in gel formulation
# Assay type: physicochemical
# Description: Thus, the improved gel formulation allows permeation of an effective amount of the active ingredient to occur in about 3 days, as compared to about 3 to 5 weeks for prior formulations. As a result of this shortened initial permeation period, the device is ready for use more quickly after manufacture, thereby reducing or eliminating the amount of time that such devices must be stored prior to use. Additional advantages of the device of the present invention include eliminating several of the problems associated with the use of a mineral oil-based gel, such as leaving an oily residue on the animal, the potential for triggering skin irritations, and inhibiting the process of sealing the reservoir. In addition, insecticides such as cypermethrin which are not miscible in mineral oil-based gels are miscible in the improved gel formulation of the present invention.
structure (smiles),measurement,setting,value
CC1(C)C(C=C(Cl)Cl)C1C(=O)OC(C#N)c1cccc(Oc2ccccc2)c1 (centres unmarked) [cypermethrin],Miscibility,in mineral oil-based gels,not miscible
same,Miscibility,in the improved gel formulation of the present invention,miscible
